Values belong to the compound of their own block, whether it stands above or below them. Activity calls are given as the source filed them.
Experiments:
[1] = inhibitors of intracellular T. cruzi replication, confirmation, NIH3T3 host cells, beta-gal luminescence (AID 2044); type: functional, cell-based;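 also: intracellular parasites grown in NIH/3T3 mouse fibroblasts as host cells; luminescent beta-galactosidase reporter signal from transgenic T. cruzi replicating inside host cells; inhibitors lower the luminescence signal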
[2] = cytotoxicity toward NIH3T3 fibroblasts, dose response, counter-screen, cell-based, ATP luminescence, mouse fibroblasts (AID 2010); type: functional;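 also: cells exposed to compound for about 90 hours before reading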
[3] = target: Low molecular weight phosphotyrosine protein phosphatase (Homo sapiens, UniProt P24666); type: functional; conditions: read-out: IC50_Mean;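 also: Dose-response confirmation assay measuring inhibition of LMPTP enzyme activity by fluorescence intensity read-out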
Chain of Low molecular weight phosphotyrosine protein phosphatase (P24666 whole entry): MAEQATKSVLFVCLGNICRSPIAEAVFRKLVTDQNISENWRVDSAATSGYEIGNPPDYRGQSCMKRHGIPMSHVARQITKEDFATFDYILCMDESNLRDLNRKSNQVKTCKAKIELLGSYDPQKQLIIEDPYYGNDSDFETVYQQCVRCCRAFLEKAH

[4] = target: T1, Probable nicotinate-nucleotide adenylyltransferase (Staphylococcus aureus (strain N315), UniProt P65502); type: functional, Staphylococcus aureus subsp. aureus N315;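 as to IC50 Mean: confirmatory dose-response retesting of NadD inhibitor hits first found in an ultra-high-throughput screen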
[5] = target: T1, Probable nicotinate-nucleotide adenylyltransferase; type: functional, Staphylococcus aureus subsp. aureus N315; conditions: read-out: IC50_Mean
[6] = target: ADP-ribosylation factor GTPase-activating protein 1 (Rattus norvegicus, UniProt Q62848); assay: Fluorescence polarization-based biochemical high throughput dose response screening assay to identify inhibitors of ADP-ribosylation factor GTPase activating protein 1 (ARFGAP1).; type: functional
Chain of ADP-ribosylation factor GTPase-activating protein 1 (Q62848 whole entry): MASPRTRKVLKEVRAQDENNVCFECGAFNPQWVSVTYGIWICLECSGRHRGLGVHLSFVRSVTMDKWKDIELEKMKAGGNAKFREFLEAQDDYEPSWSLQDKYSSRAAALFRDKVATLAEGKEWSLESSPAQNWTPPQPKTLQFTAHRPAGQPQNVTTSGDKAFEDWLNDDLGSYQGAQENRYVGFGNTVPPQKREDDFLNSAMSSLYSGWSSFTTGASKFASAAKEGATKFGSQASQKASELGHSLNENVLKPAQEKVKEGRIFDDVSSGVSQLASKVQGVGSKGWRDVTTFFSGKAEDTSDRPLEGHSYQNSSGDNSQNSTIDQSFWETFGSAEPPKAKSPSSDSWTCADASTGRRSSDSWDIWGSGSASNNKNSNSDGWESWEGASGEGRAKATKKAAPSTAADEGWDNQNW

[7] = target: Nuclear receptor subfamily 5 group A member 2 (Homo sapiens, UniProt O00482); type: functional, cell-based;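 also: HEK293T cells transfected with LRH-1 and a StAR promoter luciferase reporter; potency for inhibitors that lower LRH-1 driven reporter light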
Chain of Nuclear receptor subfamily 5 group A member 2 (O00482 whole entry): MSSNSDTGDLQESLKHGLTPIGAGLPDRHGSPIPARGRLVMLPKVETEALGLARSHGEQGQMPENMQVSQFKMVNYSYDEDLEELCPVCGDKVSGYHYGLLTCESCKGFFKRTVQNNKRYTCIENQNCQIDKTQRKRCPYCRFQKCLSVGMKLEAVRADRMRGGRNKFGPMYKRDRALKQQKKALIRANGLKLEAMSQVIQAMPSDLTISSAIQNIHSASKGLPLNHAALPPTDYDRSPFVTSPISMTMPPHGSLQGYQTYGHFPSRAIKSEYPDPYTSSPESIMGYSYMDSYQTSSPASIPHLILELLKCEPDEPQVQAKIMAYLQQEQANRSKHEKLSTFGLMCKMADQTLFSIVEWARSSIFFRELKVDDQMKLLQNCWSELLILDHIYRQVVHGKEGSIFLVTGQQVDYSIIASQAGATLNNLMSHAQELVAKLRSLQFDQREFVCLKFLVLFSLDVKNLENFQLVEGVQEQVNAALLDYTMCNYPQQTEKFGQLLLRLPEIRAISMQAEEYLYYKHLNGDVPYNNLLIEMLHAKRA

Steroidogenic factor 1 = Steroidogenic factor 1 (Homo sapiens, UniProt Q13285); assay: Counterscreen for inverse agonists of the liver receptor homolog-1 (LRH-1; NR5A2): Luminescence-based cell-based high throughput dose response assay to identify inverse agonists of the Steroidogenic Factor 1 Nuclear Receptor (SF1; NR5A1).; type: functional
[8] = StAR promoter reporter inhibition counter-screen, dose response, counter-screen for LRH-1 inverse agonist project, cell-based, luminescence, luciferase reporter (AID 651969); type: functional
Cytochrome P450 2C9 = Cytochrome P450 2C9 (Homo sapiens, UniProt P11712)
Chain of Cytochrome P450 2C9 (P11712 whole entry): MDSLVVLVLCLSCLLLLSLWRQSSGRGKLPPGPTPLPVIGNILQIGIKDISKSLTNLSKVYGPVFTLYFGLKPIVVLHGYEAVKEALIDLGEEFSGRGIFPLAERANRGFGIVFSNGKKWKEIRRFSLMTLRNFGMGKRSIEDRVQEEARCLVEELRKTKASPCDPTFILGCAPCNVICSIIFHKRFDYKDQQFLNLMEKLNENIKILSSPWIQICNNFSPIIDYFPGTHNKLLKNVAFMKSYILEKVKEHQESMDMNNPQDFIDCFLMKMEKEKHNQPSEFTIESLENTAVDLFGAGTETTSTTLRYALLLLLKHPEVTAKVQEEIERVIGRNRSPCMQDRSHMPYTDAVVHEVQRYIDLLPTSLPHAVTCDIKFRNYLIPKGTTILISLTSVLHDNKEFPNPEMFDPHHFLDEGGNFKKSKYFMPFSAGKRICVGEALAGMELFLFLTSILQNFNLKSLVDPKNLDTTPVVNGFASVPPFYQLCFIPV

[9] = target: Peroxisome proliferator-activated receptor gamma/Nuclear receptor coactivator 1 (Homo sapiens, UniProt P37231); assay: (§1) TR-FRET dose response biochemical High Throughput Screening assay for agonists of the steroid receptor coactivator 1 (SRC-1) recruitment by the peroxisome proliferator-activated receptor gamma (PPAR gamma): non-selective agonists. [Related pubchem assays (depositor defined):AID1300, AID1808, AID504735, AID631]; type: protein assay
Chain of Peroxisome proliferator-activated receptor gamma/Nuclear receptor coactivator 1 (P37231 whole entry): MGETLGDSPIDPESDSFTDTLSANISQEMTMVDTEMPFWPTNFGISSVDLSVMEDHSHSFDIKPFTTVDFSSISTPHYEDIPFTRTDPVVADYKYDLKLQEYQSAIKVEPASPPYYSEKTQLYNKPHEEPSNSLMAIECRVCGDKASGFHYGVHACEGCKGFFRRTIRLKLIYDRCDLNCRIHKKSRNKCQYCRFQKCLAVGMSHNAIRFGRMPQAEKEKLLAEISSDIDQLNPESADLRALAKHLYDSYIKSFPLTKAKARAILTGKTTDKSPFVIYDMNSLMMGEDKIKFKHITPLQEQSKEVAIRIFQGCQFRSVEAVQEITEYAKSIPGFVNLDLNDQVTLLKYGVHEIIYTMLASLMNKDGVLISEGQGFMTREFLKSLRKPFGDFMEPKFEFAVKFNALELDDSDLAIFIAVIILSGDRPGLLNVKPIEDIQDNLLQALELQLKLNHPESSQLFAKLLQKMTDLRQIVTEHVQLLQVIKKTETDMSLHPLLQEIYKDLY
Chain of Peroxisome proliferator-activated receptor gamma/Nuclear receptor coactivator 1 (Q15788 whole entry, further chain): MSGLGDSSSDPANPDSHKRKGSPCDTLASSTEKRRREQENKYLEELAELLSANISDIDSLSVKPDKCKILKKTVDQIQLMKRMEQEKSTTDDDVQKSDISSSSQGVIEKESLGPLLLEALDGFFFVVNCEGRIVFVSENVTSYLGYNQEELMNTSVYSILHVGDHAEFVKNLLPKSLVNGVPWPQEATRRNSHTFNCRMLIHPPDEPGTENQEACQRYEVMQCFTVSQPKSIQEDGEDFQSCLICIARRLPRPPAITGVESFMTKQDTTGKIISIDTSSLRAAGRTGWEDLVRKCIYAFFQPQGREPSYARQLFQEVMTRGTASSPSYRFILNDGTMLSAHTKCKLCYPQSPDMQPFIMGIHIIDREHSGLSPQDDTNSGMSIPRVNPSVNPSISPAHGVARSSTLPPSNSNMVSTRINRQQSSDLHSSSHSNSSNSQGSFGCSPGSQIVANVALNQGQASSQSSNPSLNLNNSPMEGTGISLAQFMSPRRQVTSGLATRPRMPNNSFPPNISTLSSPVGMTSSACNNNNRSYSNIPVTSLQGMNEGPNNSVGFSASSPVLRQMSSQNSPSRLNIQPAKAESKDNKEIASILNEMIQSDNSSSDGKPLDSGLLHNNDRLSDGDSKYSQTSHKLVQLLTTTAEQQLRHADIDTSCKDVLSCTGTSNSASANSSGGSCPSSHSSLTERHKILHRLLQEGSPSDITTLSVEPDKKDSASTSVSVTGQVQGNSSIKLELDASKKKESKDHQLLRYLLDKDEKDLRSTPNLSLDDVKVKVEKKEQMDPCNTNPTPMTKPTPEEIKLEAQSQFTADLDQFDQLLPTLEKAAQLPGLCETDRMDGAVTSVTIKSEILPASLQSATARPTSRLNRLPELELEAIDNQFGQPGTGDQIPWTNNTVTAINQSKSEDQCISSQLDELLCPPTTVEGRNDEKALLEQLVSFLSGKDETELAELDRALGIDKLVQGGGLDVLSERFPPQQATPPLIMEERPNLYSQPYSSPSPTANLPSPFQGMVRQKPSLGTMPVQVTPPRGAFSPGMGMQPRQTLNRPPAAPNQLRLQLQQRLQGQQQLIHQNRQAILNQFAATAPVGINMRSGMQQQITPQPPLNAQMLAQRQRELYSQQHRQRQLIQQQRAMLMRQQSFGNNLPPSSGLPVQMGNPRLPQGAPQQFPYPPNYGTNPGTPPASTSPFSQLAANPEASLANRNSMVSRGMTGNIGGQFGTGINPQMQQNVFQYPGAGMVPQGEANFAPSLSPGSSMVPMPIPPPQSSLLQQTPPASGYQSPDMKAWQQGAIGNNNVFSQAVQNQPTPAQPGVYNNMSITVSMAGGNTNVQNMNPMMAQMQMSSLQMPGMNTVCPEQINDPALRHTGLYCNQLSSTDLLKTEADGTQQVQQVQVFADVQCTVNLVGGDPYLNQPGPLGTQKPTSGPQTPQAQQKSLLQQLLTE

[10] = target: Peroxisome proliferator-activated receptor gamma/Nuclear receptor coactivator 3 (Homo sapiens, UniProt P37231); assay: as §1, with “3 (SRC-3)” for “1 (SRC-1)”, “assays: 1301 (Confirmation screen.), 1048 (Primary screen.)]” for “assays (depositor defined):AID1300, AID1808, AID504735, AID631]”; type: functional
[11] = target: Peroxisome proliferator-activated receptor gamma/Nuclear receptor coactivator 2 (Homo sapiens, UniProt P37231); assay: TR-FRET dose response biochemical High Throughput Screening assay for agonists of the steroid receptor coactivator 2 (SRC-2) recruitment by the peroxisome proliferator-activated receptor gamma (PPAR gamma): non-selective agonists. [Related pubchem assays: 1297, 1032 ]; type: functional
[12] = target: Mitogen-activated protein kinase 10 (Homo sapiens, UniProt P53779); assay: Dose response biochemical screening assay for inhibitors of c-Jun N-Terminal Kinase 3 (JNK3). [Related pubchem assays: 746 ]
Chain of Mitogen-activated protein kinase 10 (P53779 whole entry): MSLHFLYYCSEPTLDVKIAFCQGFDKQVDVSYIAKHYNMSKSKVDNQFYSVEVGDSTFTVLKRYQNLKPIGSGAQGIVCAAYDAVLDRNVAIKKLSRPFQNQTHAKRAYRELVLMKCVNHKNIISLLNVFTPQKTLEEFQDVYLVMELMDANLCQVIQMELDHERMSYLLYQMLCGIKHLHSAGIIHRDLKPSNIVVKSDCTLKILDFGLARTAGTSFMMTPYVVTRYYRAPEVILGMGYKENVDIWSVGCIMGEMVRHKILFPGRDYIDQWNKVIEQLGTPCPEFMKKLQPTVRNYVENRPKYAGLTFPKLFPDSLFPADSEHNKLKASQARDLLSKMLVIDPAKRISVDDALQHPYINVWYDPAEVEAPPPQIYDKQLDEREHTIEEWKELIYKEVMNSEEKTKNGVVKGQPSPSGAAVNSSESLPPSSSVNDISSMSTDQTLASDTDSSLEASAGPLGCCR

[13] = Luminescence Cell-Based Dose Retest to Confirm Inhibitors of Cancer Stem Cells. [Related pubchem assays (depositor defined):AID2717, AID2721]; type: functional; conditions: Homo sapiens
[14] = target: Photoreceptor-specific nuclear receptor (Homo sapiens, UniProt Q9Y5X4); type: functional, cell-based;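 also: CHO-S cells with Gal4-NCOR and VP16-NR2E3 two-hybrid luciferase reporter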
[15] = target: Hepatocyte nuclear factor 4-alpha (Homo sapiens, UniProt P41235); type: functional, cell-based;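 also: biochemical luminescence-based dose-response counterscreen measuring inhibition of HNF4 dimerization, run alongside a screen for blockers of ABHD5–perilipin-5 interaction; split luciferase complementation of HNF4 fusion proteins in cell lysate measuring dimerization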
[16] = target: T2, Heat shock factor protein 1 (Mus musculus, UniProt P38532); assay: inhibition of MG132-induced HSE-luciferase signal, confirmation, cell-based, NIH3T3, luminescence, dose retest (AID 2382); type: functional;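 also: NIH3T3 fibroblasts with HSF1-driven luciferase reporter stressed by proteasome inhibitor MG132; luminescence from HSF1-driven luciferase expression after 8 hours of MG132 stress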
T2 sequence (P38532 whole entry): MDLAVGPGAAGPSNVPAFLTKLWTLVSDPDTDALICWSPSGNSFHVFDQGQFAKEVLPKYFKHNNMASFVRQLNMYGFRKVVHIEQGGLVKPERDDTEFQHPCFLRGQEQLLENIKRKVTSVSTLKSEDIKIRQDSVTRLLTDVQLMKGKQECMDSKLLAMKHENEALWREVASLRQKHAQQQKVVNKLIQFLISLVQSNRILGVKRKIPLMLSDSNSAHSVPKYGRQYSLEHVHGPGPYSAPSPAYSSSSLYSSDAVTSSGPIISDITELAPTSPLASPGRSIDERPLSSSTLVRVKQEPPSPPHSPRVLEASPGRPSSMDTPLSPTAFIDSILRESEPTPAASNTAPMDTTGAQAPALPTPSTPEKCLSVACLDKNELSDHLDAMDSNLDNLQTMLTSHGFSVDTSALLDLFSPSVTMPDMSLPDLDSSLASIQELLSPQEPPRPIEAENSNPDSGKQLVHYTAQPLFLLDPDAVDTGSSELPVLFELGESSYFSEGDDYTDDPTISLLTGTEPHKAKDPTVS

[17] = target: Mitochondrial peptide methionine sulfoxide reductase (Bos taurus, UniProt P54149); type: functional;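 also: absorbance read-out, biochemical high-throughput dose-response screen for MsrA inhibitors, confirmatory; recombinant bovine MsrA coupled to E. coli TrxB with NADPH and selenocystamine; potency is for inhibitors of MsrA activity on DMSO substrate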
Chain of Mitochondrial peptide methionine sulfoxide reductase (P54149 whole entry): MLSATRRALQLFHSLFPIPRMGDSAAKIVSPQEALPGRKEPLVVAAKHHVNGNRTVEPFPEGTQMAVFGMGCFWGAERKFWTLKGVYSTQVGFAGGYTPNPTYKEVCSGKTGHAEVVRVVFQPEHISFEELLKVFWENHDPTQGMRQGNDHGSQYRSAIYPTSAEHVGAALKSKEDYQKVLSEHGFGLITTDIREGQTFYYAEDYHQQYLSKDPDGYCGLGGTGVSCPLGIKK

Protein Wnt-3a = Protein Wnt-3a (Mus musculus, UniProt P27467); assay: Wnt3a-driven reporter signaling inhibition, dose response, selectivity assay for Gli-SUFU antagonist project, Wnt-LIGHT cells, luminescence (AID 651570); type: functional; conditions: read-out: IC50_Mean;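 also: Wnt-LIGHT reporter cells stimulated with conditioned medium from Wnt3a-producing cells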
Chain of Protein Wnt-3a (P27467 whole entry): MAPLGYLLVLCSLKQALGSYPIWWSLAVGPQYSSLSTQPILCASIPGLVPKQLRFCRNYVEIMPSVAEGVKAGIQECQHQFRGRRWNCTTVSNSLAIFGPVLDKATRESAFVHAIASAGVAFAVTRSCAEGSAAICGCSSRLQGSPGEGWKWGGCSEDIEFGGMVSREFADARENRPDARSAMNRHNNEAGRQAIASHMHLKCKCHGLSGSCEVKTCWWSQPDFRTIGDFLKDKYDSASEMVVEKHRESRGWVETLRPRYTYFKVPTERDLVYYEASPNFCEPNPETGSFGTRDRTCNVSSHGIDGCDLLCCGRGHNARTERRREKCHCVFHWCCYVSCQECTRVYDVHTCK

Compound: O=C(N/N=C/c1ccc(Br)s1)c1ccc([N+](=O)[O-])cc1
EC50 [1]: 3.76 µM (active)
EC50 [2]: 8.96 µM (active)
IC50 [3]: 9.73 µM (active)

IC50 [4]: 9.28 µM (active)
IC50 [5]: 42.5 µM (active)
Compound: COc1ccc(OC)c(/C=C/C(=O)OCC(=O)Nc2nnc(-c3ccccc3)o2)c1

IC50 [3]: 80 µM (inactive)
Compound: Cc1csc2nc(O)c(C(=O)NCc3ccc4c(c3)OCO4)c(=O)n12

IC50 [6]: 69.8 µM (inactive)
Compound: CCOc1ccc2oc(C(=O)OCC(=O)N3CCCC(C)C3)c(C)c2c1 (stereo unspecified)

Compound: COc1ccc(NC(=O)COC(=O)c2c(-c3ccccc3)noc2C)cc1
IC50 [7]: 5.15 µM (active)
IC50 (Steroidogenic factor 1): 1.43 µM (active)
IC50 [8]: 35.9 µM (inactive)
AC50 (Cytochrome P450 2C9): 20 µM (inconclusive)

Compound: Cc1ccnc(NC(=O)CSc2cc(=O)n(C)c3ccccc23)c1
EC50 [9]: > 79.4 µM (inactive)
EC50 [10]: > 79.4 µM (not active)
EC50 [11]: > 79.4 µM (not active)
IC50 [12]: > 93.1 µM (not active)
AC50 [13]: 1.03 µM (active)
IC50 [14]: 0.664 µM (active)

IC50 [15]: 15.7 µM (inactive)
Compound: COc1ccc(NC(=O)C(c2ccc(OC)cc2)n2c(=O)c(-c3ccco3)nc3ccccc32)cc1 (stereo unspecified)

EC50 [16]: 35.5 µM (active)
IC50 [17]: 51.7 µM (inactive)
Compound: CC(/C=C/c1ccc2c(c1)OCO2)=N/NC(=O)c1ccncc1

IC50 (Protein Wnt-3a): 3.96 µM (active)
Compound: CCOC(=O)c1sc2nc(CC(=O)OC)nc(NCc3ccc(Cl)cc3)c2c1C

From ChEMBL document CHEMBL1201862, “PubChem BioAssay data set” (2004)
